# Measured values reported in US20130130223A1, “NOVEL CONDITIONALLY IMMORTALIZED HUMAN PROXIMAL TUBULE CELL LINE EXPRESSING FUNCTIONAL INFLUX AND EFFLUX TRANSPORTERS” (priority 2009, published 2013).
# T1: OCT2/SLC22A2 (Homo sapiens, UniProt O15244)
# T1 construct: investigated in ciPTEC-14.4 by measuring the activity and expression of the solute carrier tansporter (SLC) OCT2/SLC22A2; endogenous in cells; host or cells: ciPTEC-14.4 grown on Transwell filters
# T1 sequence (O15244 1-555): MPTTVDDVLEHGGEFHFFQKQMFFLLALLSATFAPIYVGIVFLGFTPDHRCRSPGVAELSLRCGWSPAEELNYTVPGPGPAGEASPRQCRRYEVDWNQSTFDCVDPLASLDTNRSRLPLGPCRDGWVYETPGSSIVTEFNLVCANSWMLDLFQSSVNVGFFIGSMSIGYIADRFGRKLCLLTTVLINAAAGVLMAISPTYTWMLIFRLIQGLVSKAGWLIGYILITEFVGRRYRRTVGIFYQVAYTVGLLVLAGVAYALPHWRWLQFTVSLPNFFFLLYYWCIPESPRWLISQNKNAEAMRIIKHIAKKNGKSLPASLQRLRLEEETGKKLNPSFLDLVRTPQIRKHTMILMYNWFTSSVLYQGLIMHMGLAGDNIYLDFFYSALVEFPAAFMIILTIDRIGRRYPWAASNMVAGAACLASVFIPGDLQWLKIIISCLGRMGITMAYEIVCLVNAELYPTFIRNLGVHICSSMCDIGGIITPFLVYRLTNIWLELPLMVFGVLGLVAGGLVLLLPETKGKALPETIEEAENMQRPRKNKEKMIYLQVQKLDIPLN
# Assays:
# OK cells = conditions: reference [12]; cited from earlier work
# OCT2/SLC22A2 = target: T1, OCT2/SLC22A2; assay: OCT2/SLC22A2 activity (basolateral ASP uptake); format: cell-based
# Procedure: Transport of xenobiotics across the basolateral membrane was investigated in ciPTEC-14.4 by measuring the activity and expression of the solute carrier tansporter (SLC) OCT2/SLC22A2 using a method adapted from Brown et al. Cells were grown on Transwell®-Clear polyester membranes as described before. Activity of OCT2 was measured by incubating 1 μM fluorescent OCT2 substrate 4-(4-(dimethylamino)styryl)-N-methylpyridinium iodide (ASP, Invitrogen) in Hepes-Tris buffer for 1 min at 37° C. at the basal compartment. To inhibit OCT2 mediated uptake, cells were exposed to 100 μM tetrapentylammonium (TPA) at both apical and basal compartments for 10 min prior to uptake of ASP. Additionally, one set of experiments was performed at 4° C. After incubation, transport was arrested using 1 mM ice-cold TPA. Cells were homogenized using 250 μl Hepes-Tris-Triton (0.1%) buffer for 30 min, followed by analyzing fluorescence intensity (excitation 450 nm, emission 642 nm) using Victor3 Multiplate Reader (Perkin Elmer Inc.). Data are expressed as mean+i-SE.
# [1] = tested on: opossum kidney (OK) cells; conditions: reference [20], read-out: Km of apical phosphate transport; cited from earlier work
# [2] = tested on: sodium-dependent transporters NaPi-IIa (SLC34A1) and NaPi-IIc (SLC34A3); assay: Sodium-dependent phosphate uptake (32PO4); format: cell-based, human
# Procedure: Phosphate uptake was performed in confluent monolayers using 32PO4 (Perkin Elmer, Waltham Mass., USA) as described earlier. Cells cultured for 10 days at 37° C. were incubated with 0.2 mM KH2PO4 (10 μCi/ml) for 5 min in four independent experiments, in the presence of 137 mM sodium or 137 mM NMDG to study sodium-dependent transport. Additionally, time- (0.5; 1; 2; 5; 10; 15; 30 or 60 min) and concentration-dependent (0.02; 0.07; 0.22; 0.66 or 2 mM PO4) uptake was studied. Data are expressed as mean+/−SE.
# (§1) Michaelis-Menten curve fitting for calculation of Km and Vmax values was performed by non-linear regression analysis using GraphPad Prism 4.03 software. Differences in substrate transport in presence or absence of inhibitors or unlabelled analogues were assessed by a paired t-test.
# ciPTEC-14.4 = assay: Albumin uptake by endocytosis (BSA-FITC uptake); format: cell-based, human
# Procedure: The ability of ciPTEC-14.4 to reabsorb albumin was investigated by the incubation of confluent monolayers in 24 well plates with 50 μg/ml BSA-FITC (Sigma-Aldrich) for 30 min at 37° C. unless described otherwise. Uptake was arrested using ice-cold PBS and cells were detached using trypsin, fixed by paraformaldehyde (0.5%) in PBS and analyzed using flow cytometry or immuno-fluorescence microscopy. Concentration- and temperature-dependent uptake, was investigated using a concentration range BSA-FITC (0; 3.7; 11; 33; 100; 300 μg/ml) at 37° C. and on ice for 30 min. Uptake inhibition was studied in three independent experiments by incubating the cells with BSA-FITC (50 μg/ml) in addition of excess unlabelled BSA (10 mg/ml) or recombinant RAP (1 μM), which was a kind gift of Dr. M. Nielsen (University of Aarhus, Denmark). Uptake inhibition by RAP was further examined using a dilution range of RAP. BSA uptake in saturation experiments are plotted as mean fluorescence intensity and in inhibition experiments as mean (+/−SE) percentage uptake compared to control condition.
# as §1
molecule,measurement,setting,value
albumin,apparent Km of albumin uptake,OK cells,20 µg/mL
"CN(C)c1ccc(/C=C/c2cc[n+](C)cc2)cc1 [ASP, 4-(4-(dimethyl-amino)styryl)-N-methylpyridinium iodide]","inhibition at 1 min, 1 μM",OCT2/SLC22A2,30%
"O=P([O-])(O)O.[K+] [phosphate, KH2PO4]",Km,[1],370 µM
same,decrease of phosphate uptake in the absence of sodium,"[2]; 0.2 mM Pi, 5 min, NMDG as sodium replacement, p<0.001",approximately 86%
same,Km,"[2]; ciPTEC-14.4, read-out: apparent Km of sodium-dependent phosphate uptake",120 µM
BSA-FITC: FITC labelled bovine serum albumin,apparent Km of BSA-FITC uptake,"ciPTEC-14.4; ciPTEC-14.4, passage 20-25, 30 min, 37° C.",126 µg/mL
unlabelled FITC: excess unlabelled bovine serum albumin used as competitor of BSA-FITC uptake,inhibition of BSA-FITC uptake,"ciPTEC-14.4; 200-fold excess unlabelled (10 mg/ml), BSA-FITC 50 μg/ml, p<0.01",54%
"CCCCC[N+](CCCCC)(CCCCC)CCCCC [TPA, tetrapentylammonium]","inhibition at 1 min, 100 μM","OCT2/SLC22A2; 100 μM TPA, 1 μM ASP, 1 min 37° C., basal compartment, p<0.05, read-out: inhibition of ASP transport",36%
"RAP: recombinant receptor associated protein, known inhibitor of albumin endocytosis by binding to multi-ligand receptor megalin (protein, UniProt P30533 35-357, looked up) Alpha-2-macroglobulin …: YSREKNQPKPSPKRESGEEFRMEKLNQLWEKAQRLHLPPVRLAELHADLKIQERDELAWKKLKLDGLDEDGEKEARLIRNLNVILAKYGLDGKKDARQVTSNSLSGTQEDGLDDPRLEKLWHKAKTSGKFSGEELDKLWREFLHHKEKVHEYNVLLETLSRTEEIHENVISPSDLSDIKGSVLHSRHTELKEKLRSINQGLDRLRRVSHQGYSTEAEFEEPRVIDLWDLAQSANLTDKELEAFREELKHFEAKIEKHNHYQKQLEIAHEKLRHAESVGDGERVSRSREKHALLEGRTKELGYTVKKHLQDLSGRISRARHNEL",inhibition of BSA-FITC uptake,"ciPTEC-14.4; 1 μM RAP, BSA-FITC 50 μg/ml, 30 min 37° C., p<0.05",41%
same,"inhibition of BSA-FITC uptake, dilution range of RAP",ciPTEC-14.4; BSA-FITC 50 μg/ml,inhibited the uptake of BSA-FITC in a concentration-dependent manner
